Results taken from patent US6337130B1, “Acid-triggered release microcapsules” (Zeneca Limited, priority 1998, dated 2002).

Assay: In vitro release rate evaluation: evaporative weight loss of butylate from microcapsules under vacuum (Cahn RH electrobalance)
Assay type: physicochemical
Conditions: 40° C.
Method: This composition was tested in vitro for release rate in the presence of acid as follows: 5.0 grams of formulation were diluted with 25.0 grams of water. Two 1.5 gram aliquots were removed, vacuum filtered onto 0.22 μm filter paper, and placed in a jar (to reduce volatilization of butylate) until the release rate measurement was performed. The remainder of the solution was treated with a concentrated solution of p-toluenesulfonic acid to pH 2.02. The acid treated solution was rolled for 10 minutes after which several 1.5 gram aliquots of the acid treated solution were removed, vacuum filtered onto 0.22 μm filter paper, and placed in a jar (to reduce volatilization butylate) until the release rate measurement was performed.
Release rate studies were conducted employing a Cahn RH electrobalance to monitor the rate of evaporative weight loss of butylate (a model compound with a high vapor pressure) from microcapsules under vacuum. The sample (on the filter paper) was placed on the sample pan of the electrobalance and allowed to equilibrate at 40° C. for 10-15 minutes in the sealed system prior to placing under vacuum. The weight loss, measured with the electrobalance enclosed under vacuum, was recorded on a chart recorder.

With `CCSC(=O)N(CC(C)C)CC(C)C` [butylate, S-ethyl diisobutyl thiocarbamate] as the molecule, how does the “release rate of non-encapsulated butylate” value read?
Its value is “The release rate of non-encapsulated butylate was determined to be about 17-19 mg/min”.
